In one assay the target is T1, PKC theta (Homo sapiens, UniProt Q04759).
T1 construct: purchased Upstate Biotechnologies, Temecula, CA 14-444
As to the kind of experiment: PKC assay, fluorescence polarization (Example 2), PKC theta. The assay is classed as biochemical. To be noted: 5 μM ATP. Here is the method:
The inhibition of PKC activity was measured by monitoring the production of phosphorylated peptide by fluorescence polarization at different concentrations of the inhibitor. Reactions were carried out in 96-well plate format with a total volume of 20 μL containing 20 mM HEPES, pH 7.4, 5 mM MgCl2, 0.2 mM CaCl2, 1 mM DTT, 0.02% Brij-35, 0.1 mg/mL phosphatidylserine, 0.02 mg/mL dioleoyl-sn-glycerol and 5 μM each of ATP and the peptide substrate. Compounds were first diluted serially in DMSO and then transferred to a solution containing the above concentrations of HEPES, MgCl2, CaCl2, DTT, and Brij-35 to yield 5× compound solutions in 2% DMSO, which was then added to the reaction solution. Reactions were initiated by the addition of PKC at a typical concentration as described in Table VI, and then allowed to incubate at room temperature for 20 min. At the end of this time, a combination of quench (EDTA) and detection (peptide tracer and antibody) reagents was added using the protocol of Invitrogen P2748.

The subject of another assay is Human primary T cells. As to the kind of experiment: IL-2 ELISA, Human Primary T Cell, Anti-CD3+CD28+ (Example 3). In kind it is cell-based. Particulars: anti-CD3+CD28 stimulation. The procedure, abridged:
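IL-2 was read by ELISA after stimulation on wells pre-coated with 1 ug/ml αCD3 and 5 μg/ml αCD28. Before this, 100,000 human primary T cells per well spent 1 h at 37 °C with test compound in Yssel's medium. The counter-screen replaced antibody stimulation with PMA (0.5 ng/ml final) and ionomycin (0.1 uM final).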

Consider 21 molecules from US8993585B2, “Cyclic amine substituted pyrimidinediamines as PKC inhibitors” (Rigel Pharmaceuticals, Inc., priority 2007, dated 2015).

T1 sequence (Q04759 whole entry): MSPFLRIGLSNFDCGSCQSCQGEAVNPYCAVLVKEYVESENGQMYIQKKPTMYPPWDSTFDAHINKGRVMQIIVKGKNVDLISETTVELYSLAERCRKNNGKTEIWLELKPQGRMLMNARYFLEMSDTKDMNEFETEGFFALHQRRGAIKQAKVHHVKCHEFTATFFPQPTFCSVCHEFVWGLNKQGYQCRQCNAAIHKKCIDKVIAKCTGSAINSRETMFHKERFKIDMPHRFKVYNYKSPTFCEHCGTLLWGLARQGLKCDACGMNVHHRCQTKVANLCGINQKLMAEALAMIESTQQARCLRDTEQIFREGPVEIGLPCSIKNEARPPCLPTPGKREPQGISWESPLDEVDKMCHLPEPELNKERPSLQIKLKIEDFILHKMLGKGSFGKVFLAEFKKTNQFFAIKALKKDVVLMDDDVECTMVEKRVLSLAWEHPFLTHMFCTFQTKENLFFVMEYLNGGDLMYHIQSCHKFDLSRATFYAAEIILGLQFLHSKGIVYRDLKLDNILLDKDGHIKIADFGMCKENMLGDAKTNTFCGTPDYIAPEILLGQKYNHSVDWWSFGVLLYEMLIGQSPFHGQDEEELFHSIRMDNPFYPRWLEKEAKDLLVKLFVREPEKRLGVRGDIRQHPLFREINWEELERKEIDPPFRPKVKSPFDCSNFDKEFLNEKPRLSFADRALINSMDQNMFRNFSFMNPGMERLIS

In the case of `CN1C(C)(C)CC(Nc2nc(Nc3ccc(-c4ccncc4)cc3)ncc2F)CC1(C)C` [Compound I-123], the IC50 on PKC theta is 80.8 nM; in the assay with Human primary T cells (Homo sapiens, T-cell, 24 h) it was 872 nM. Regarding `CN1C(C)(C)CC(Nc2nc(Nc3ccc(C(F)(F)F)c(Cl)c3)ncc2F)CC1(C)C` [Compound I-337], the IC50 was found to be 249 nM at PKC theta and 311 nM with Human primary T cells (Homo sapiens, T-cell, 24 h). With `CC1(C)CC(Nc2nc(Nc3ccc4c(c3)oc(=O)n4CC3CC3)ncc2C#N)CC(C)(C)N1` [II-97], the IC50 was 2.5 nM at PKC theta and 500 nM with Human primary T cells (Homo sapiens, T-cell, 24 h). `CC1(C)CC(Nc2nc(Nc3cccc(C#N)c3)ncc2F)CC(C)(C)N1` [Compound I-70]: the IC50 came out at 38.7 nM at PKC theta and 517 nM with Human primary T cells (Homo sapiens, T-cell, 24 h). The corresponding values for `CCCN1CCN(c2ccc(Nc3ncc(F)c(NC4CC(C)(C)N(C)C(C)(C)C4)n3)cc2Cl)CC1` [Compound I-249] are 13.7 nM and 136 nM. Consider `COc1ccc(Nc2ncc(Cl)c(NC3CC(C)(C)N(C)C(C)(C)C3)n2)cc1Cl` [Compound I-31], for which the IC50 amounted to 5 nM on PKC theta and 91 nM in the assay with Human primary T cells (Homo sapiens, T-cell, 24 h). In the same order, the values of `CN1C(C)(C)CC(Nc2nc(Nc3ccc(N4CCN(S(C)(=O)=O)CC4)c(C(F)(F)F)c3)ncc2F)CC1(C)C` [Compound I-244] are 34.1 nM and 248 nM. With `CN1C(C)(C)CC(Nc2nc(Nc3ccc(-c4ccoc4)cc3)ncc2F)CC1(C)C` [Compound I-125], the IC50 at PKC theta was 111 nM; with Human primary T cells (Homo sapiens, T-cell, 24 h), 892 nM. In the same order, the values of `CN1C(C)(C)CC(Nc2nc(Nc3ccc(F)c(Br)c3)ncc2F)CC1(C)C` [Compound I-158] are 20.6 nM and 489 nM. For the molecule `CN1C(C)(C)CC(Nc2nc(Nc3cc(-c4cnn(C)c4)cc(C(F)(F)F)c3)ncc2F)CC1(C)C` [Compound I-204], the IC50 amounted to 82.9 nM at PKC theta and 440 nM in the assay on Human primary T cells (Homo sapiens, T-cell, 24 h). In the case of `CN1CCC(Nc2nc(Nc3cccc(C#N)c3)ncc2F)CC1` [III-2, N2-(3-Cyano)phenyl-5-fluoro-N4-(1-methylpiperidin-4-yl)-2,4-pyrimidinediamine], the IC50 came to 130 nM at PKC theta and 1060 nM with Human primary T cells (Homo sapiens, T-cell, 24 h). `CN1CCC(Nc2nc(Nc3ccc(N4CCN(C)CC4)c(Cl)c3)ncc2F)CC1` [III-4, N2-[3-Chloro-4-(4-methylpiperazino)]phenyl-5-fluoro-N4-(1-methylpiperidin-4-yl)-2,4-pyrimidinediamine]: the IC50 came out at 32.4 nM at PKC theta and 1680 nM in the assay with Human primary T cells (Homo sapiens, T-cell, 24 h). Regarding `CN1C(C)(C)CC(Nc2nc(Nc3ccc(S(N)(=O)=O)cc3)ncc2F)CC1(C)C` [Compound I-9], the IC50 on PKC theta is 86 nM; in the assay on Human primary T cells (Homo sapiens, T-cell, 24 h) it was 3440 nM. Regarding `CC1(C)CC(Nc2nc(Nc3ccc(N4CCN(S(C)(=O)=O)CC4)c(C(F)(F)F)c3)ncc2F)CC(C)(C)N1` [Compound I-257], the IC50 with Human primary T cells (24 hours) came to 423 nM. Regarding `CN(C)CCN1C(=O)C(C)(C)Oc2cc(Nc3ncc(F)c(NC4CC(C)(C)N(C)C(C)(C)C4)n3)ccc21` [II-49], 1240 nM corresponded to half-maximal inhibition with Human primary T cells (Homo sapiens, T-cell, 24 h) (IC50).

In the assay with Human primary T cells (24 hours), `CN1CCN(c2c(F)cc(Nc3ncc(F)c(NC4CC(C)(C)N(C)C(C)(C)C4)n3)cc2F)CC1` [Compound I-40] showed an IC50 of 461 nM. As to `COc1cc(Nc2ncc(F)c(N(Cc3ccc(-c4ccccc4C#N)cc3)C3CC(C)(C)N(C)C(C)(C)C3)n2)cc(OC)c1` [Compound I-325], the IC50 with Human primary T cells (Homo sapiens, T-cell, 24 h) worked out at 3460 nM. In turn, `COc1cccc2sc(Nc3ncc(F)c(NC4CC(C)(C)N(C)C(C)(C)C4)n3)nc12` [II-20] returned an IC50 in the assay on Human primary T cells (Homo sapiens, T-cell, 24 h) of 2100 nM. With `COc1cc(Nc2ncc(F)c(NC3CC(C)(C)NC(C)(C)C3)n2)cc(-n2nnnc2C)c1` [Compound I-372], the midpoint of inhibition in the assay with Human primary T cells (24 hours), the IC50, lay at 92.1 nM.

For `Cc1cccc2sc(Nc3ncc(F)c(NC4CC(C)(C)N(C)C(C)(C)C4)n3)nc12` [II-19], in the assay on Human primary T cells (Homo sapiens, T-cell, 24 h), the midpoint of inhibition, the IC50, lay at 890 nM. In the assay with Human primary T cells (24 hours), `CN1C(C)(C)CC(Nc2nc(Nc3cccc(OC(F)(F)F)c3)ncc2F)C1(C)C` (stereo not shown) [Compound I-284, 5-Fluoro-N2-(3-trifluoromethoxy)phenyl-N4-(1,2,2,5,5-pentamethylpyrrolidin-3-yl)-2,4-pyrimidinediamine] returned an IC50 of 3040 nM.
